In ChEMBL document CHEMBL4138317, “Deciphering the Inhibition of the Neuronal Calcium Sensor 1 and the Guanine Exchange Factor Ric8a with a Small Phenothiazine Molecule for the Rational Generation of Therapeutic Synapse Function Regulators” (J Med Chem, 2018) one finds Kd, inhibition and Activity data, which are given here for four compounds.

Active and inactive are the calls of the source. The calls are words filed in the database; no cut-off is given here.

Assay [1] concerns the target T1, Frequenin-2 (Drosophila melanogaster, UniProt Q9VWX8).
T1 sequence (Q9VWX8 whole entry): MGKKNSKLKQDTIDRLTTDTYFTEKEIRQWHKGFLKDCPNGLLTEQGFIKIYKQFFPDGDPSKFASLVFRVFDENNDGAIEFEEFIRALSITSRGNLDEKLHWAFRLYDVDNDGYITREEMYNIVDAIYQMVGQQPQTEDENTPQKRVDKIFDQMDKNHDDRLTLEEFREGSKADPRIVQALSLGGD
Briefly: Binding affinity to drosophila NCS1 expressed in Escherichia coli BL21 (DE3) by fluorescence emission assay. As to conditions: read-out: Kd(app).

For assay [2], the target named is Neuronal calcium sensor 1/Synembryn-A (Homo sapiens) (UniProt P62166+Q9NPQ8). Briefly: Inhibition of human NCS1 and V5-tagged Ric8a interaction expressed in HEK293 cells at 20 uM after 24 hrs by Western blot analysis relative to control. Format: cell-based.
Neuronal calcium sensor 1/Synembryn-A (Homo sapiens), sequence (P62166 whole entry, looked up): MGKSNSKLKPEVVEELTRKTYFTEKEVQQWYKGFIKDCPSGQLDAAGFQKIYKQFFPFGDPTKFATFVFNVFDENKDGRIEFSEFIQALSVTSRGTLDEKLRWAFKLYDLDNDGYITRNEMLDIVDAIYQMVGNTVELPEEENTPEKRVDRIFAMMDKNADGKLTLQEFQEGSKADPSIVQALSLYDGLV
Neuronal calcium sensor 1/Synembryn-A (Homo sapiens), sequence (Q9NPQ8 whole entry, looked up): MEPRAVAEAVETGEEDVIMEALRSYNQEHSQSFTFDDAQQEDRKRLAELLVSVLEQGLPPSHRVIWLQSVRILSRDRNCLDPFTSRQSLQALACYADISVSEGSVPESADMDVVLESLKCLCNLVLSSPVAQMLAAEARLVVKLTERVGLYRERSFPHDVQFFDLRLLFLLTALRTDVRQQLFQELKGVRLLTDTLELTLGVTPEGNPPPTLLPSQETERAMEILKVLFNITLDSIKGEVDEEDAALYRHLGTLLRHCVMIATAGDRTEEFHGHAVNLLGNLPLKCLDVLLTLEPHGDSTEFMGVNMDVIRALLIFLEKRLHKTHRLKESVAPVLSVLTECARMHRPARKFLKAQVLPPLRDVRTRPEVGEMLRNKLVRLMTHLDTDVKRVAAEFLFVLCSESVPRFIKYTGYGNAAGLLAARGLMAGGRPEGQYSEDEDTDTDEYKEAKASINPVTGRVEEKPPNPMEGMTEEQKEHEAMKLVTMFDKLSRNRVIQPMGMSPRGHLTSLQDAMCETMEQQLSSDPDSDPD
In assay [3] the target is Neuronal calcium sensor 1 (Homo sapiens, UniProt P62166). Briefly: Binding affinity to human NCS1 expressed in Escherichia coli BL21 Star (DE3) by fluorescence emission assay. The following applies: read-out: Kd(app).
Neuronal calcium sensor 1, sequence (P62166 2-190 limits assumed): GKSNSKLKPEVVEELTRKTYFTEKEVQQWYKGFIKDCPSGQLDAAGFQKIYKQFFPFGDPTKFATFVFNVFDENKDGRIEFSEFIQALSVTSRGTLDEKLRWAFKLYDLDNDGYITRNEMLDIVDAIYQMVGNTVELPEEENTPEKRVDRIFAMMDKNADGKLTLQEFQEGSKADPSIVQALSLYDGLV
Assay [4] deals with T2, Frequenin-2 (Drosophila melanogaster) (UniProt Q9VWX8).
T2 sequence (whole entry): T1 sequence (Q9VWX8 whole entry)
Briefly: Binding affinity to drosophila NCS1 expressed in Escherichia coli BL21 (DE3) by STD-NMR method.

As to `O=C(CC(c1ccccc1)c1ccccc1)Nc1nc2ccccc2s1`, the Kd was found to be 1.13 µM in assay [1] and 1.25 µM in assay [3]. Further, the inhibition (as a rule, the drop in the measured response relative to a control, in per cent) in assay [2] was 50%.
In the case of `Cc1sc(NC(=O)CNC(=O)c2ccc(F)cc2)nc1-c1ccccc1`, the inhibition in assay [2] came to 50%.
As to `O=C(CN1CCCCC1)NN1c2ccccc2Sc2ccccc21`, in assay [1], the Kd came to 71 µM. The outcome in assay [4] was Active.
With `COc1ccccc1C(=O)Nc1nc2cc(C(F)(F)F)ccc2s1`, the inhibition in assay [2] came out at 50%. Also, the Kd in assay [3] came to 11.5 µM.
